According to ChEMBL document CHEMBL1159155, “An ether-based peptide analog as c-AMP-dependent protein kinase inhibitor/substrate” (Bioorg Med Chem Lett, 1994):
Non-standard residues stand in square brackets, D forms with d. Residues, ends and D or L forms follow the SMILES beside them. *: point of attachment. Bpa = N[C@@H](Cc1ccc(C(=O)c2ccccc2)cc1)C(=O)O; Npys = O=[N+]([O-])c1cccnc1S*; X1 = CC(C)CCOC[C@H](CO)N*

Experiments:
[1] = Inhibition of bovine heart cAMP-dependent protein kinase (PKA); set-up: species or system Bos taurus
Bos taurus [2] = species: Bos taurus; assay: Activity against bovine heart cAMP-dependent protein kinase
Bos taurus [3] = species: Bos taurus; assay: Affinity for bovine heart cAMP-dependent protein kinase

CC(C)CCOC[C@H](CO)NC(=O)[C@H](C)NC(=O)[C@H](CCCN=C(N)N)NC(=O)[C@H](CCCN=C(N)N)NC(=O)[C@@H](N)CC(C)C (H-LRRA-X1)
Ki [1]: 120 µM | Vmax (Bos taurus [2]): 0.107 µM/min/mg | Km (Bos taurus [3]): 108 µM

CC(C)C[C@H](NC(=O)[C@H](CSSc1ncccc1[N+](=O)[O-])NC(=O)[C@H](C)NC(=O)[C@H](CCCN=C(N)N)NC(=O)[C@H](CCCN=C(N)N)NC(=O)[C@@H](N)CC(C)C)C(=O)NCC(=O)O (H-LRRAC(Npys)LG-OH)
Kd [1]: 40 µM

CC(C)C[C@H](NC(=O)[C@H](Cc1ccc(C(=O)c2ccccc2)cc1)NC(=O)[C@H](C)NC(=O)[C@H](CCCN=C(N)N)NC(=O)[C@H](CCCN=C(N)N)NC(=O)[C@@H](N)CC(C)C)C(=O)NCC(=O)O (H-LRRA[Bpa]LG-OH)
Kd [1]: 110 µM

CC(C)C[C@H](NC(=O)[C@H](CO)NC(=O)[C@H](C)NC(=O)[C@H](CCCNC(=N)N)NC(=O)[C@H](CCCNC(=N)N)NC(=O)[C@@H](N)CC(C)C)C(=O)NCC(=O)O [KEMPTIDE]
Kd [1]: 250 µM | Km (Bos taurus [3]): 4.6 µM | Vmax (Bos taurus [3]): 0.38 µM/min/mg

H-LRRAALG-OH
Kd [1]: 490 µM
